Consider 31 compounds from patent publication US9440953B2, “Substituted amino triazoles useful as acidic mammalian chitinase inhibitors” (OncoArendi Therapeutics Sp z o.o., priority 2014, dated 2016).

pIC50: −log10 of the molar value.

One may read the pIC50 as −log10 of the IC50, conventionally taken in molar units.

The target of the assay is recombinant human AMCase (Homo sapiens, UniProt Q9BZP6). The assay can be described thus: Human AMCase Activity Assay. Particulars: recombinant hAMCase, 4-methylumbelliferyl B-D-N,N′-diacetylchitobioside substrate, citrate buffer pH 5.2, 37° C., 60 minutes. The class given is biochemical. As to the method: Human AMCase Activity Assay
Sequence of recombinant human AMCase (Q9BZP6 22-476): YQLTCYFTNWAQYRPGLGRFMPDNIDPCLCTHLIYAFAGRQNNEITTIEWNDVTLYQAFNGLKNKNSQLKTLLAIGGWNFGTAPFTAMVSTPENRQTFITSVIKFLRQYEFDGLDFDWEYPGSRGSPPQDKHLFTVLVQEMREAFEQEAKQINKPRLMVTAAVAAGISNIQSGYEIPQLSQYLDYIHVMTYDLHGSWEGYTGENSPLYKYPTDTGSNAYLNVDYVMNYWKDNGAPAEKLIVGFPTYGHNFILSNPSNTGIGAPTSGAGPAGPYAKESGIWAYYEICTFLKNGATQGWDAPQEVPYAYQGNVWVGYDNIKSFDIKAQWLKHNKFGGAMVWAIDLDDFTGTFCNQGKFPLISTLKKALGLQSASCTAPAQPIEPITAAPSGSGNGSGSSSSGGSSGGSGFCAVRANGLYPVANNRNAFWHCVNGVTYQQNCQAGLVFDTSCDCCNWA
The assay was run in the 96-well plate format, each reaction in the total volume of 100 μL. 4-Methylumbelliferyl B-D-N,N′-diacetylchitobioside hydrate was used as a substrate for the enzyme. Upon hydrolysis by AMCase, the substrate releases 4-methylumbelliferyl (4MU) that, when ionized in basic pH, emits fluorescence at 460 nm.
Briefly, 40 μL of a substrate was added to each well, followed by 10 μL of compound dilution and 50 μL of hAMCase recombinant enzyme solution. […] The fluorescence of the reaction product was measured in Perkin Elmer Envision fluorescent plate reader at an excitation wavelength of 355 nm.
Consider `CNC(=O)c1ccc(CN(CCc2ccc(Br)cc2)C2CCN(c3nc(N)n[nH]3)CC2)cc1` [Example 35, 4-(((1-(3-amino-1H-1,2,4-triazol-5-yl)piperidin-4-yl)(4-bromophenethyl)-amino)methyl)-N-methylbenzamide], for which the pIC50 is 8.00 to 9.00.
To `Nc1n[nH]c(N2CCC(N(CCCC(=O)O)CCc3ccc(Cl)cc3)CC2)n1` [Example 27, 4-((1-(3-amino-1H-1,2,4-triazol-5-yl)piperidin-4-yl)(4-chlorophenethyl)-amino)butanoic acid] belongs 6.00 to 7.00; to `Nc1n[nH]c(N2CCC(N(CCNC(=O)C(F)(F)F)CCc3ccc(Cl)cc3)CC2)n1` [Example 14, N-(2-((1-(3-amino-1H-1,2,4-triazol-5-yl)piperidin-4-yl)(4-chlorophenethyl)-amino)ethyl)-2,2,2-trifluoroacetamide], 6.00 to 7.00; to `Cc1ccc(S(=O)(=O)NCCCN(CCc2ccc(Br)cc2)C2CCN(c3nc(N)n[nH]3)CC2)cc1` [Example 24, N-(3-((1-(3-amino-1H-1,2,4-triazol-5-yl)piperidin-4-yl)(4-bromophenethyl)-amino)propyl)-4-methylbenzenesulfonamide], 8.00 to 9.00.
With `Cc1ccc(S(=O)(=O)NCCN(CCc2ccc(Br)cc2)C2CCN(c3nc(N)n[nH]3)CC2)cc1` [Example 42, N-(2-((1-(3-amino-1H-1,2,4-triazol-5-yl)piperidin-4-yl)(4-bromophenethyl)-amino)ethyl)-4-methylbenzenesulfonamide] the figure was 8.00 to 9.00; with `CS(=O)(=O)NC(=O)c1cccc(CN(CCc2ccc(Cl)cc2)C2CCN(c3nc(N)n[nH]3)CC2)c1` [Example 40, 3-(((1-(3-amino-1H-1,2,4-triazol-5-yl)piperidin-4-yl)(4-chlorophenethyl)amino)-methyl)-N-(methylsulfonyl)benzamide], 8.00 to 9.00.
To `Nc1n[nH]c(N2CCC(N(CCc3ccc(Br)cc3)Cc3cccc(C(=O)O)c3)CC2)n1` [Example 3, 3-(((1-(3-amino-1H-1,2,4-triazol-5-yl)piperidin-4-yl)(4-bromophenethyl)amino)-methyl)benzoic acid] belongs 8.00 to 9.00; to `Cc1ccc(CN(CCc2ccc(Cl)cc2)C2CCN(c3nc(N)n[nH]3)CC2)cc1C(=O)O` [Example 6, 5-(((1-(3-amino-1H-1,2,4-triazol-5-yl)piperidin-4-yl)(4-chlorophenethyl)-amino)methyl)-2-methylbenzoic acid], 7.00 to 8.00.
On to `CS(=O)(=O)NC(=O)c1ccc(CN(CCc2ccc(Cl)cc2)C2CCN(c3nc(N)n[nH]3)CC2)cc1` [Example 39, 4-(((1-(3-amino-1H-1,2,4-triazol-5-yl)piperidin-4-yl)(4-chlorophenethyl)-amino)methyl)-N-(methylsulfonyl)benzamide], for which the pIC50 was 8.00 to 9.00.
Regarding `Nc1n[nH]c(N2CCC(N(CCc3ccc(Cl)cc3)Cc3cccc(S(=O)(=O)NCC(F)(F)F)c3)CC2)n1` [Example 19, 3-(((1-(3-amino-1H-1,2,4-triazol-5-yl)piperidin-4-yl)(4-chlorophenethyl)amino)-methyl)-N-(2,2,2-trifluoroethyl)benzenesulfonamide], the negative-log IC50 (pIC50) was 7.00 to 8.00.
`Nc1n[nH]c(N2CCC(N(CCc3ccc(Cl)cc3)CC3(C(=O)O)CC3)CC2)n1` [Example 30, 1-(((1-(3-amino-1H-1,2,4-triazol-5-yl)piperidin-4-yl)(4-chlorophenethyl)amino)-methyl)cyclopropanecarboxylic acid]: the negative-log IC50 (pIC50) is 5.00 to 6.00.
With `CC(C)C(=O)NS(=O)(=O)c1ccc(CN(CCc2ccc(Br)cc2)C2CCN(c3nc(N)n[nH]3)CC2)cc1` [Example 17, N-((4-(((1-(3-amino-1H-1,2,4-triazol-5-yl)piperidin-4-yl)(4-bromophenethyl)-amino)methyl)phenyl)sulfonyl)isobutyramide] the figure was 8.00 to 9.00; with `Nc1n[nH]c(N2CCC(N(CCc3ccc(Br)cc3)Cc3ccc(C(=O)O)cc3)CC2)n1` [Example 4, 4-(((1-(3-amino-1H-1,2,4-triazol-5-yl)piperidin-4-yl)(4-bromophenethyl)-amino)methyl)benzoic acid], 8.00 to 9.00; with `Nc1n[nH]c(N2CCC(N(CCc3ccc(Cl)cc3)Cc3cccc(-c4nnn[nH]4)c3)CC2)n1` [Example 36, N-(3-(1H-tetrazol-5-yl)benzyl)-1-(3-amino-1H-1,2,4-triazol-5-yl)-N-(4-chlorophenethyl)piperidin-4-amine], 8.00 to 9.00.
With `CC(=O)NS(=O)(=O)c1cccc(CN(CCc2ccc(Br)cc2)C2CCN(c3nc(N)n[nH]3)CC2)c1` [Example 18, N-((3-(((1-(3-amino-1H-1,2,4-triazol-5-yl)piperidin-4-yl)(4-bromophenethyl)-amino)methyl)phenyl)sulfonyl)acetamide] the figure was 8.00 to 9.00; with `CS(=O)(=O)Nc1cccc(CN(CCc2ccc(Cl)cc2)C2CCN(c3nc(N)n[nH]3)CC2)c1` [Example 32, N-(3-(((1-(3-amino-1H-1,2,4-triazol-5-yl)piperidin-4-yl)(4-chlorophenethyl)-amino)methyl)phenyl)methanesulfonamide], 8.00 to 9.00.
`CS(=O)(=O)NCCCN(CCc1ccc(Br)cc1)C1CCN(c2nc(N)n[nH]2)CC1` [Example 23, N-(3-((1-(3-amino-1H-1,2,4-triazol-5-yl)piperidin-4-yl)(4-bromophenethyl)-amino)propyl)methanesulfonamide]: the negative-log IC50 (pIC50) is 8.00 to 9.00.
To `CS(=O)(=O)Nc1ccccc1CN(CCc1ccc(Cl)cc1)C1CCN(c2nc(N)n[nH]2)CC1` [Example 31, N-(2-(((1-(3-amino-1H-1,2,4-triazol-5-yl)piperidin-4-yl)(4-chlorophenethyl)-amino)methyl)phenyl)methanesulfonamide] belongs 7.00 to 8.00; to `CS(=O)(=O)NC(=O)c1cc(CN(CCc2ccc(Cl)cc2)C2CCN(c3nc(N)n[nH]3)CC2)ccc1Cl` [Example 41, 5-(((1-(3-amino-1H-1,2,4-triazol-5-yl)piperidin-4-yl)(4-chlorophenethyl)amino)-methyl)-2-chloro-N-(methylsulfonyl)benzamide], 7.00 to 8.00; to `Nc1n[nH]c(N2CCC(N(CCc3ccc(Br)cc3)Cc3ccc(S(N)(=O)=O)cc3)CC2)n1` [Example 15, 4-(((1-(3-amino-1H-1,2,4-triazol-5-yl)piperidin-4-yl)(4-bromophenethyl)amino)-methyl)benzenesulfonamide], 8.00 to 9.00.
To `Nc1n[nH]c(N2CCC(N(CCc3ccc(Cl)cc3)C(CC(=O)O)c3ccc(Cl)cc3)CC2)n1` (stereo not shown) [Example 28, 3-((1-(3-amino-1H-1,2,4-triazol-5-yl)piperidin-4-yl)(4-chlorophenethyl)amino)-3-(4-chlorophenyl)propanoic acid] belongs 5.00 to 6.00.
To `Nc1n[nH]c(N2CCC(N(CCc3ccc(Cl)cc3)Cc3ccc(Cl)c(C(=O)O)c3)CC2)n1` [Example 7, 5-(((1-(3-amino-1H-1,2,4-triazol-5-yl)piperidin-4-yl)(4-chlorophenethyl)amino)-methyl)-2-chlorobenzoic acid] belongs 8.00 to 9.00; to `Nc1n[nH]c(N2CCC(N(CCNC(=O)c3ccccc3)CCc3ccc(Cl)cc3)CC2)n1` [Example 9, N-(2-((1-(3-amino-1H-1,2,4-triazol-5-yl)piperidin-4-yl)(4-chlorophenethyl)amino)-ethyl)benzamide], 7.00 to 8.00.
`Nc1n[nH]c(N2CCC(N(CCc3ccc(Cl)cc3)CC(C(=O)O)c3ccc(Cl)cc3)CC2)n1` (stereo not shown) [Example 29, 3-((1-(3-amino-1H-1,2,4-triazol-5-yl)piperidin-4-yl)(4-chlorophenethyl)amino)-2-(4-chlorophenyl)propanoic acid]: the negative-log IC50 (pIC50) was 7.00 to 8.00.
To `CC(C)NC(=O)NCCN(CCc1ccc(Cl)cc1)C1CCN(c2nc(N)n[nH]2)CC1` [Example 12, 1-(2-((1-(3-amino-1H-1,2,4-triazol-5-yl)piperidin-4-yl)(4-chlorophenethyl)-amino)ethyl)-3-isopropylurea] belongs 6.00 to 7.00.
To `Nc1n[nH]c(N2CCC(N(CCc3ccc(Cl)cc3)Cc3nnn[nH]3)CC2)n1` [Example 43, N-((1H-tetrazol-5-yl)methyl)-1-(3-amino-1H-1,2,4-triazol-5-yl)-N-(4-chlorophenethyl)piperidin-4-amine] belongs 7.00 to 8.00; to `Cc1cc(CN(CCc2ccc(Cl)cc2)C2CCN(c3nc(N)n[nH]3)CC2)ccc1C(=O)O` [Example 5, 4-(((1-(3-amino-1H-1,2,4-triazol-5-yl)piperidin-4-yl)(4-chlorophenethyl)amino)-methyl)-2-methylbenzoic acid], 8.00 to 9.00; to `Nc1n[nH]c(N2CCC(N(CCC(=O)O)CCc3ccc(Cl)cc3)CC2)n1` [Example 26, 3-((1-(3-amino-1H-1,2,4-triazol-5-yl)piperidin-4-yl)(4-chlorophenethyl)-amino)propanoic acid], 5.00 to 6.00.
For `CC(C)NC(=O)CN(CCc1ccc(Cl)cc1)C1CCN(c2nc(N)n[nH]2)CC1` [Example 22, 2-((1-(3-amino-1H-1,2,4-triazol-5-yl)piperidin-4-yl)(4-chlorophenethyl)amino)-N-isopropylacetamide], the negative logarithm of the IC50 (pIC50) was 6.00 to 7.00.
With `Nc1n[nH]c(N2CCC(N(CCc3ccc(Cl)cc3)Cc3ccccc3C(=O)O)CC2)n1` [Example 2, 2-(((1-(3-amino-1H-1,2,4-triazol-5-yl)piperidin-4-yl)(4-chlorophenethyl)amino-)methyl)benzoic acid] the figure was 6.00 to 7.00; with `NC(=O)c1ccc(CN(CCc2ccc(Br)cc2)C2CCN(c3nc(N)n[nH]3)CC2)cc1` [Example 34, 4-(((1-(3-amino-1H-1,2,4-triazol-5-yl)piperidin-4-yl)(4-bromophenethyl)-amino)methyl)benzamide], 8.00 to 9.00.
